Here are results for 35 compounds from patent US10294237B2, “Bicyclic heterocyclic amide derivative” (Sumitomo Dainippon Pharma Co., Ltd., priority 2015, dated 2019).

Assay [1] has as its system HCT-116 cells. Nature of the assay: Test for inhibiting sphere-forming ability of cancer cells. Type of assay: cell-based. The settings on record: HCT-116 spheres, non-adherent, serum-free, 4 days, CellTiter-Glo, read-out: IC50 (Sphere IC50 value; concentration for 50% inhibition of cell proliferation). As for the experimental part: (§1) The reliable methods established for measuring the self-renewal ability of cells which is one of the CSC's properties include a method for measuring the sphere-forming ability of cancer cells in non-adherent condition in the absence of serum (Cancer Res 65, 5506-5511 (2005)). HCT-116 cells were available from the American Type Culture Collection (ATCC). HCT-116 cells were cultured at 37° C. and 5% CO2 using the McCoy's 5a medium containing 10% fetal bovine serum (FBS) and 1% penicillin/streptomycin. HCT-116 cells were seeded in a 384 Well Black Clear Bottom Ultra-Low Attachment Microplate (Corning Cat. No. 3827) in an amount of 350-800 cells/well using the DMEM/F12 medium containing 2% B27 supplement (GIBCO), 20 ng/mL epidermal growth factor (EGF) (peprotech), 10 ng/mL basic fibroblast growth factor (bFGF) (peprotech), 5 μg/mL insulin (Sigma), and 1% penicillin/streptomycin. The test compounds were added into each well to adjust the final concentration of DMSO to 0.1%, and the cells were cultured for 4 days. The number of viable cells in each well was then measured with CellTiter-Glo® Luminescent Cell Viability Assay (Promega) to calculate the concentration of each test compound for 50% inhibition of cell proliferation (Sphere IC50 value; μmol/L).
The experiment of Test Example 1 was performed for the compounds of each Example. The concentrations of each test compound for 50% inhibition of cell profeliration (Sphere IC50 value; μmol/L) are shown in the following Table.
On the technique in general: ATP-based viability assays read luminescence as a measure of living cells.

For assay [2], the system named is HCT-116 cells. The experiment in a line: Test for inhibiting sphere-forming ability of cancer cells (in the presence of BSA). Type of assay: cell-based. The settings on record: HCT-116 spheres, non-adherent, 5% BSA, 4 days, CellTiter-Glo, read-out: IC50 (Sphere IC50 value; concentration for 50% inhibition of cell proliferation). As for the experimental part:
as §1, with “HCT-116” for “The reliable methods established for measuring the self-renewal ability of cells which is one of the CSC's properties include a method for measuring the sphere-forming ability of cancer cells in non-adherent condition in the absence of serum (Cancer Res 65, 5506-5511 (2005)). HCT-116”, “(Sigma), 5% bovine serum albumin (BSA),” for “(Sigma),”
The experiment of Test Example 2 was performed for the compounds of each Example. The concentrations of each test compound for 50% inhibition of cell profeliration (Sphere IC50 value; μmol/L) are shown in the following Table.

As for `O=C(Nc1cn(Cc2ccc(OC(F)(F)F)cc2)cn1)c1ccc2c(c1)CCNC2` [Example 75], the IC50 in the assay on HCT-116 cells [1] came out at 400 nM; in the assay on HCT-116 cells [2], 610 nM.

Regarding `Cc1ccccc1Cn1cnc(NC(=O)c2cnc3c(c2)CCNC3)c1` [Example 60], the IC50 in the assay with HCT-116 cells [1] came out at 250 nM; with HCT-116 cells [2] it was 100 nM.

On to `O=C(Nc1cc2c(cc1F)CNCC2)c1cn(Cc2ccc(F)c(F)c2)cn1` [Example 2], for which the IC50 with HCT-116 cells [1] (Homo sapiens, 96 h) came to 660 nM; in the assay on HCT-116 cells [2] (Homo sapiens, HCT-116, 96 h), 490 nM.

Turning to `O=C(Nc1cn(Cc2cccc(F)c2)cn1)c1cnc2c(c1)CCNC2` [Example 120], the half-maximal inhibitory concentration (IC50) in the assay on HCT-116 cells [1] is 80 nM; with HCT-116 cells [2], 70 nM.

Consider `O=C1CCc2cc(C(=O)Nc3cn(Cc4cccc(C(F)(F)F)c4)cn3)ccc2C1` [Example 110, 6-Oxo-N-{1-[3-(trifluoromethyl)benzyl]-1H-imidazol-4-yl}-5,6,7,8-tetrahydronaphthalene-2-carboxamide], for which the IC50 in the assay on HCT-116 cells [1] (Homo sapiens, 96 h) stood at 680 nM; in the assay with HCT-116 cells [2] (Homo sapiens, HCT-116, 96 h), 580 nM.

As for `COc1cc(Cn2cnc(NC(=O)c3ccc4c(c3)CCNC4)c2)cc(C(F)(F)F)c1` [Example 98], the IC50 in the assay on HCT-116 cells [1] (Homo sapiens, 96 h) amounted to 500 nM; with HCT-116 cells [2] (Homo sapiens, HCT-116, 96 h) it was 510 nM.

As to `O=C(Nc1cn(Cc2cccc(C(F)(F)F)c2)cn1)c1cc2c(cn1)CNCC2` [Example 9, N-{1-[3-(trifluoromethyl)benzyl]-1H-imidazol-4-yl}-5,6,7,8-tetrahydro-2,7-naphthyridine-3-carboxamide], the IC50 with HCT-116 cells [1] (Homo sapiens, 96 h) is 70 nM; with HCT-116 cells [2] (Homo sapiens, HCT-116, 96 h), 500 nM.

Take `Cc1nc(NC(=O)c2ccc3c(c2)CCNC3)cn1Cc1cccc(C(F)(F)F)c1` [Example 22]: the half-maximal inhibitory concentration (IC50) was found to be 200 nM in the assay with HCT-116 cells [1] (Homo sapiens, 96 h) and 580 nM in the assay with HCT-116 cells [2] (Homo sapiens, HCT-116, 96 h).

For `O=C(Nc1cn(Cc2ccc(Cl)cc2)cn1)c1ccc2c(c1)CCNC2` [Example 87], the IC50 with HCT-116 cells [1] worked out at 600 nM; in the assay with HCT-116 cells [2] it was 580 nM.

In the case of `O=C(Nc1cn(Cc2cccc(C(F)(F)F)c2)cn1)c1ccc2c(c1)CNCC2` [Example 18], the IC50 in the assay on HCT-116 cells [1] (Homo sapiens, 96 h) turned out to be 670 nM; in the assay on HCT-116 cells [2] (Homo sapiens, HCT-116, 96 h), 700 nM.

Regarding `N#Cc1cccc(Cn2cnc(NC(=O)c3ccc4c(c3)CCNC4)c2)c1` [Example 88], the IC50 came out at 5030 nM in the assay with HCT-116 cells [1] and 950 nM with HCT-116 cells [2].

With `O=C(Nc1cn(Cc2ccc(F)cc2)cn1)c1cnc2c(c1)CCNC2` [Example 61], the IC50 in the assay on HCT-116 cells [1] was found to be 370 nM; in the assay on HCT-116 cells [2] it was 60 nM.

Turning to `O=C(Nc1cn(Cc2cc(Cl)cc(OC(F)(F)F)c2)cn1)c1ccc2c(c1)CCNC2` [Example 100, N-{1-[3-chloro-5-(trifluoromethoxy)benzyl]-1H-imidazol-4-yl}-1,2,3,4-tetrahydroisoquinoline-6-carboxamide], the IC50 came to 60 nM in the assay with HCT-116 cells [1] (Homo sapiens, 96 h) and 70 nM with HCT-116 cells [2] (Homo sapiens, HCT-116, 96 h).

As to `O=C(Nc1cn(Cc2cc(F)c(F)c(F)c2)cn1)c1ccc2c(c1)CCNC2` [Example 25, N-[1-(3,4,5-Trifluorobenzyl)-1H-imidazol-4-yl]-(1,2,3,4-tetrahydroisoquinoline-6-carboxamide ditrifluoroacetate], the IC50 was determined as 60 nM in the assay on HCT-116 cells [1] (Homo sapiens, 96 h) and 90 nM in the assay with HCT-116 cells [2] (Homo sapiens, HCT-116, 96 h).

`O=C(Nc1cn(CCC2CCCCC2)cn1)c1cnc2c(c1)CCNC2` [Example 56]: the IC50 with HCT-116 cells [1] worked out at 70 nM; in the assay with HCT-116 cells [2], 160 nM.

For the compound `O=C(Nc1cn(Cc2ccccc2)cn1)c1cnc2c(c1)CCNC2` [Example 59], the values for the IC50 in the assay with HCT-116 cells [1] and in the assay with HCT-116 cells [2] were 610 nM and 370 nM, respectively.

`O=C(Nc1cn(Cc2ccccc2C(F)(F)F)cn1)c1cnc2c(c1)CCNC2` [Example 62]: the IC50 in the assay on HCT-116 cells [1] amounted to 710 nM; in the assay on HCT-116 cells [2], 590 nM.

Regarding `O=C(Nc1cn(Cc2cc(Cl)cc(Cl)c2)cn1)c1ccc2c(c1)CCNC2` [Example 101, N-[1-(3,5-dichlorobenzyl)-1H-imidazol-4-yl]-1,2,3,4-tetrahydroisoquinoline-6-carboxamide], the IC50 with HCT-116 cells [1] (Homo sapiens, 96 h) worked out at 70 nM; in the assay on HCT-116 cells [2] (Homo sapiens, HCT-116, 96 h), 60 nM.

As to `O=C(Nc1cn(Cc2cc(F)cc(C(F)(F)F)c2)cn1)c1ccc2c(c1)CCNC2` [Example 99, N-{1-[3-fluoro-5-(trifluoromethyl)benzyl]-1H-imidazol-4-yl}-1,2,3,4-tetrahydroisoquinoline-6-carboxamide], the IC50 in the assay with HCT-116 cells [1] (Homo sapiens, 96 h) was determined as 60 nM; in the assay with HCT-116 cells [2] (Homo sapiens, HCT-116, 96 h), 60 nM.

For `Cc1cccc(Cn2cnc(NC(=O)c3cnc4c(c3)CCNC4)c2)c1` [Example 121], the IC50 in the assay with HCT-116 cells [1] stood at 80 nM; in the assay with HCT-116 cells [2] it was 70 nM.

Take `O=C(Nc1cn(Cc2ccc(Cl)c(F)c2)cn1)c1ccc2c(c1)CCNC2` [Example 90, N-[1-(4-chloro-3-fluorobenzyl)-1H-imidazol-4-yl]-1,2,3,4-tetrahydroisoquinoline-6-carboxamide]: the concentration for half-maximal inhibition (IC50) is 70 nM with HCT-116 cells [1] (Homo sapiens, 96 h) and 100 nM in the assay with HCT-116 cells [2] (Homo sapiens, HCT-116, 96 h).

For `O=C(Nc1cn(Cc2ccc3ccccc3c2)cn1)c1cnc2c(c1)CCNC2` [Example 66], the IC50 in the assay with HCT-116 cells [1] was 700 nM; with HCT-116 cells [2] it was 5490 nM.

For the compound `O=C(Nc1cn(Cc2ccc(Cl)c(C(F)(F)F)c2)cn1)c1cnc2c(c1)CCNC2` [Example 54, N-{1-[4-chloro-3-(trifluoromethyl)benzyl]-1H-imidazol-4-yl}-5,6,7,8-tetrahydro-1,7-naphthyridine-3-carboxamide], the IC50 with HCT-116 cells [1] (Homo sapiens, 96 h) is under 10 nM; in the assay on HCT-116 cells [2] (Homo sapiens, HCT-116, 96 h), 30 nM.

Turning to `O=C(Nc1cn(Cc2cc(F)cc(F)c2)cn1)c1ccc2c(c1)CCNC2` [Example 74], the IC50 with HCT-116 cells [1] and in the assay with HCT-116 cells [2] was 490 nM each time.

`O=C(/C=C/c1ccc2c(c1)OCO2)Nc1cn(Cc2cccc(Cl)c2)cn1` [Example 38]: the IC50 with HCT-116 cells [1] (Homo sapiens, 96 h) was determined as 70 nM; in the assay with HCT-116 cells [2] (Homo sapiens, HCT-116, 96 h), 90 nM.

As for `O=C(/C=C/c1ccc2c(c1)OC(F)(F)O2)Nc1cn(Cc2cccc(Cl)c2)cn1` [Example 40], the IC50 in the assay on HCT-116 cells [1] (Homo sapiens, 96 h) worked out at 80 nM; in the assay with HCT-116 cells [2] (Homo sapiens, HCT-116, 96 h), 70 nM.

In the case of `O=C(Nc1cn(Cc2cccc(Cl)c2)cn1)c1cnc2c(c1)CCNC2` [Example 43], the IC50 in the assay on HCT-116 cells [1] (Homo sapiens, 96 h) is 720 nM; in the assay with HCT-116 cells [2] (Homo sapiens, HCT-116, 96 h), 540 nM.

`O=C(Nc1cn(Cc2cc(F)c(F)c(F)c2)cn1)c1ccc2c(c1F)CCNC2` [Example 14]: the IC50 with HCT-116 cells [1] (Homo sapiens, 96 h) stood at 430 nM; with HCT-116 cells [2] (Homo sapiens, HCT-116, 96 h), 460 nM.

As to `O=C(Nc1cn(Cc2ccc(F)c(Cl)c2)cn1)c1ccc2c(c1)CCNC2` [Example 95, N-[1-(3-chloro-4-fluorobenzyl)-1H-imidazol-4-yl]-1,2,3,4-tetrahydroisoquinoline-6-carboxamide], the IC50 was 80 nM in the assay on HCT-116 cells [1] (Homo sapiens, 96 h) and 90 nM with HCT-116 cells [2] (Homo sapiens, HCT-116, 96 h).

For the compound `O=C(Nc1ccc2c(c1)CCNC2)c1cn(Cc2cc(F)c(F)c(F)c2)cn1` [Example 4, N-(1,2,3,4-tetrahydroisoquinolin-6-yl)-1-(3,4,5-trifluorobenzyl)-1H-imidazole-4-carboxamide], the IC50 in the assay on HCT-116 cells [1] (Homo sapiens, 96 h) came out at 660 nM; in the assay with HCT-116 cells [2] (Homo sapiens, HCT-116, 96 h), 560 nM.

Take `O=C(Nc1cn(Cc2cc(Cl)cc(OC(F)(F)F)c2)cn1)c1cnc2c(c1)CCNC2` [Example 70, N-{1-[3-chloro-5-(trifluoromethoxy)benzyl]-1H-imidazol-4-yl}-5,6,7,8-tetrahydro-1,7-naphthyridine-3-carboxamide]: the IC50 in the assay with HCT-116 cells [1] (Homo sapiens, 96 h) was 40 nM; in the assay on HCT-116 cells [2] (Homo sapiens, HCT-116, 96 h), 60 nM.

Turning to `O=C(Nc1cn(Cc2ccc(Cl)c(Cl)c2)cn1)c1ccc2c(c1)CCNC2` [Example 102, N-[1-(3,4-dichlorobenzyl)-1H-imidazol-4-yl]-1,2,3,4-tetrahydroisoquinoline-6-carboxamide], the IC50 came to 60 nM in the assay on HCT-116 cells [1] (Homo sapiens, 96 h) and 60 nM with HCT-116 cells [2] (Homo sapiens, HCT-116, 96 h).

On to `O=C(Nc1cn(Cc2ccccc2F)cn1)c1cnc2c(c1)CCNC2` [Example 46], for which the results for the IC50 in the assay on HCT-116 cells [1] and in the assay on HCT-116 cells [2] were 750 nM and 440 nM, respectively.

Turning to `O=C(Nc1cn(CC2CCCCC2)cn1)c1ccc2c(c1)CCNC2` [Example 85], the IC50 in the assay on HCT-116 cells [1] was determined as 610 nM; in the assay on HCT-116 cells [2], 590 nM.

Consider `O=C(Nc1cn(Cc2ccc(Cl)c(F)c2)cn1)c1cnc2c(c1)CCNC2` [Example 51, N-[1-(4-chloro-3-fluorobenzyl)-1H-imidazol-4-yl]-5,6,7,8-tetrahydro-1,7-naphthyridine-3-carboxamide], for which the IC50 in the assay with HCT-116 cells [1] (Homo sapiens, 96 h) amounted to 60 nM; in the assay on HCT-116 cells [2] (Homo sapiens, HCT-116, 96 h), 50 nM.

As a reminder, the IC50 is the concentration at which inhibition is half-maximal.
